In PubChem BioAssay (NCI) one finds GI50 and TGI data, which are given here for 8 molecules.

“And” between values parts separate entries of the source, which are not always exact repeats. Identical values can stand only once.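 These data come from cells grown in 96-well plates and exposed to compound for 48 hours at five concentrations. Here, GI50 denotes the concentration required for 50% inhibition of growth. Definition used: TGI = concentration required for complete inhibition of growth.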

Holding throughout (experiment): growth of human tumour cells (NCI), 48 h
Test [1] relates to IGROV1 ovarian.
Test [2] has as its system MALME-3M melanoma.
The test system of test [3] is 786-0 renal.
For test [4], the system named is SW-620 colon.
For test [5], the system named is NCI-H460 lung.
Test [6] concerns UO-31 renal.
Test [7] concerns OVCAR-8 ovarian.
Test [8] has as its system DU-145 prostate.
Test [9] concerns OVCAR-3 ovarian.
In test [10] the test system is ACHN renal.

Turning to `COc1cc(N(CCC#N)CCC#N)ccc1/C(N=Nc1ccc([N+](=O)[O-])cc1)=N/NC(=O)c1cc(Br)ccc1O`, the GI50 in [1] is 26.6 µg/mL; in test [2] it was 44.2 µg/mL; in test [3], 46.4 µg/mL; in test [4], 57.4 µg/mL; in [5], 33.8 µg/mL; in test [6], 48.4 µg/mL. The GI50 was 52.8 µg/mL in test [7], 30.3 µg/mL in test [8], 30.9 µg/mL in test [9] and 39.6 µg/mL in test [10]. Also, the TGI in test [1] was 121 µg/mL; in test [2], 96.1 µg/mL; in test [3], > 150 µg/mL; in test [4], > 150 µg/mL; in test [5], 107 µg/mL; in [6], > 150 µg/mL. The TGI in [7] was > 150 µg/mL; in [8], 70.9 µg/mL; in test [9], 76.2 µg/mL; in test [10], 131 µg/mL.
Take `COc1ccc(/C=C(/C(=O)N2CCN(c3ccccc3)CC2)c2cc(OC)c(OC)c(OC)c2)cc1O`: the GI50 in test [1] is 0.519 µM; in test [2] it was 24.7 µM; in test [3], 4.1 µM; in test [4] it was 0.468 µM; in test [5], 0.374 µM; in test [7], 0.419 µM. Further, the values for the GI50 in test [8], in test [9] and in test [10] were 0.451 µM, 322 nM and 457 nM, respectively. Also, the TGI is > 100 µM in test [1]; > 100 µM in test [2]; > 100 µM in test [3]; > 100 µM in test [4]; > 100 µM in test [5]; 90.8 µM in test [6]. Also, the TGI is > 100 µM in [7], > 100 µM in test [8], 6.76 µM in test [9] and > 100 µM in [10].
`O=C1c2cccc(NCCCNCCO)c2C(=O)c2cccc(NCCCNCCO)c21`: the TGI in [1] was 8.22 µM and 9.3 µM; in [2], 3.94 µM and 10.4 µM; in [3], 10.1 µM and 5.84 µM; in [4], 3.41 µM and 7.57 µM; in test [5], 4 µM and 4.23 µM; in test [6] it was 22.2 µM and 21.4 µM. Besides, the TGI in [7] was 4.57 µM and 5.66 µM; in test [8], 7.44 µM; in [9], 5.65 µM and 9.94 µM; in test [10] it was 5.71 µM and 10.4 µM. Also, in test [2], the GI50 is 2.06 µM and 4.18 µM.
With `O=C(CNc1ccc(Cl)cc1)Nc1ccc(-c2nc3ccccc3s2)cc1`, the GI50 was 5.79 µM in [1]; 6.06 µM in [2]; 1.9 µM in [3]; 2.15 µM in [4]; 3.62 µM in test [5]; 4030 nM in test [6]. For the same molecule, the GI50 in test [7] was 6.15 µM; in [8] it was 3.49 µM; in test [9], 2040 nM; in test [10], 5810 nM. Moreover, the TGI came to 12.9 µM in test [1]; 12.6 µM in test [2]; 4.03 µM in test [3]; 4.73 µM in test [4]; 12.7 µM in test [5]; 15.4 µM in [6]. In addition, the TGI in test [7] came out at 17.8 µM; in test [8], 11.7 µM; in test [9], 3.99 µM; in test [10], 12.6 µM.
On to `O=C1NC(=O)C(c2cnc3ccccn23)=C1c1cn2c3c(cc(F)cc13)CN(C(=O)N1CCCCC1)CC2`, for which the GI50 was 21 µM in test [1]; 30.7 µM in test [2]; 3.05 µM in test [3]; 14.2 µM in [4]; 2.45 µM in test [5]; 2540 nM in test [6]. Further, the GI50 in [7] was 6.89 µM; in test [8], 12.7 µM; in test [9], 11800 nM; in test [10], 1370 nM. The TGI in [1] is > 80 µM; in [2] it was 60.8 µM; in test [3], > 59.4 µM; in test [4], 45.8 µM; in test [5], 29.1 µM; in test [6], > 65.5 µM. The TGI in [7] is > 92.1 µM; in [8], 39.7 µM; in test [9], 44 µM; in [10], > 72.5 µM.
For `CCOC(=O)CCCn1c(SC)nc2[nH]cc(-c3ccccc3)c2c1=O`, the GI50 in test [1] was 16.5 µM; in test [2], 15.1 µM; in test [3], 6.81 µM; in test [4], 20.7 µM; in test [5] it was 33.6 µM; in [6], 19900 nM. For the same molecule, the GI50 in [7] was 19 µM; in test [8], 17.1 µM; in test [9], 16800 nM; in test [10], 8090 nM. For the same molecule, the TGI in [1] was 47 µM; in test [2], 42.1 µM; in [3], 44.8 µM; in [4], 78.6 µM; in test [5], > 100 µM; in test [6] it was 57.9 µM. In addition, the TGI was 58.9 µM in [7], > 100 µM in test [8], 42.6 µM in test [9] and 43.2 µM in [10].
Turning to `N#Cc1c(NN)n(C2OC(CO)C(O)C2O)c2ncnc(N)c12` (centres undefined), the GI50 in test [1] is 0.057 µM; in test [2], 0.0858 µM; in [3], 0.228 µM; in test [4], 0.0254 µM; in [5], 0.032 µM; in test [6] it was 41.7 nM. The GI50 in test [7] was 0.257 µM; in [8], 0.0375 µM; in test [9] it was 28 nM; in [10] it was 38.5 nM. Besides, the TGI worked out at 0.348 µM in [1]; 1.35 µM in [2]; 4.77 µM in test [3]; 1.18 µM in [4]; 0.412 µM in [5]; 0.774 µM in test [6]. In addition, the TGI was determined as 7.56 µM in test [7], 6.26 µM in [8] and 0.299 µM in [9].
On to `CCCCCCNC(=O)c1cc(NCc2cc(O)ccc2O)ccc1O`, for which the GI50 was 12.7 µM in test [1]; 2.74 µM in test [2]; 5.22 µM in test [3]; 8.75 µM in test [4]; 21.5 µM in test [5]; 1220 nM in [6]. The GI50 in test [7] was 4.83 µM; in test [8], 15.2 µM; in test [9] it was 2760 nM; in test [10], 4020 nM. Moreover, the TGI was found to be 38.7 µM in [1]; 8.29 µM in [2]; 20.7 µM in [3]; 33.1 µM in test [4]; 82.3 µM in test [5]; 2.76 µM in [6]. In addition, the TGI in test [7] came to 36.2 µM; in test [8] it was 28.8 µM; in [9] it was 13 µM; in [10], 15.7 µM.
